Columns and labels:
Format in all cases: cell-based
human breast tumor cells = test: Hormonal therapy microtiter assay, inhibition of cell proliferation (Example 5)
[1] = tested on: human brain tumor and human ovarian tumor cells; test: Combined modality drug/radiation microtiter assay (Example 7); conditions: Taxol 0.5-25.0 μM with 2 Gy, or Taxol 5 μM with 1 Gy-6 Gy; through 5 days post-treatment; four tumor specimens
Experimental: Twenty-four (24) hours post-plating, cells in the microtiter plate wells were exposed to the chemotherapeutic agent Taxol. One set of plates was designed to have escalating Taxol doses with (0.5-25.0 μM) with a fixed radiation dose (2 Gy). A second set of plates was designed to have a fixed Taxol dose (5 μM) with an escalating radiation dose (1 Gy-6 Gy). The cells in the plates were irradiated using a Siemans Stabilipan X-ray machine operating at 250 kVp, 15 mA with a dose rate of 75 rad/minute.
For each of the two treatment schema, cell number per well was monitored as a function of time through 5 days post-treatment. Cell number relative to controls was determined and survival curves were fit.

[2] = tested on: human ovarian tumor cells; test: Combination chemotherapy microtiter assay, Taxol and carboplatin (Example 4); conditions: then 48 hours, four tumor specimens
Experimental: Twenty-four (24) hours post-plating, the chemotherapeutic agent Taxol was applied to the wells in the microtiter plates. […] Rows 5 and 9 served as a control. The Taxol exposure time was two hours. Twenty-four hours later, the cells in the wells were exposed to carboplatin for two hours. The tumor cells in the wells were then incubated for another 48 hours.
Cell number relative to control was determined.

Compound: CC/C(=C(\c1ccccc1)c1ccc(OCCN(C)C)cc1)c1ccccc1 [Tamoxifen]
- inhibition of cell proliferation (cell number relative to control) (human breast tumor cells; 10 nM to 20 μM, six doses, 24 hours exposure, then 72 hours, four breast tumor specimens): two of the four breast specimens tested showed an inhibition of cell proliferation
- concentration range in which the responses occurred (human breast tumor cells; tested range 10 nM to 20 μM): mid to high

Compound: CC(=O)O[C@H]1C(=O)[C@@]2(C)[C@H]([C@H](OC(=O)c3ccccc3)[C@]3(O)C[C@H](OC(=O)[C@H](O)[C@@H](NC(=O)c4ccccc4)c4ccccc4)C(C)=C1C3(C)C)[C@]1(OC(C)=O)CO[C@@H]1C[C@@H]2O [Taxol]
- cell killing by drug combined with radiation (cell number relative to controls, survival curves) [1]: Both additive and synergistic cell killing
- cell number relative to control, escalating Taxol/fixed carboplatin ([2]; Taxol 1.0, 5.0, 25 μM for two hours, carboplatin 200 μM for two hours 24 h later): dose response relationship was observed

Compound: N.N.O=C([O-])C1(C(=O)[O-])CCC1.[Pt+2] [carboplatin]
- cell number relative to control, fixed Taxol/escalating carboplatin ([2]; Taxol 5 μM for two hours, carboplatin 50, 200, 1000 μM for two hours 24 h later): dose response relationship was observed

— patent publication US6416967B2, “Method of using multicellular particulates to analyze malignant or hyperproliferative tissue” (Precision Therapeutics, Inc., priority 1996, dated 2002)
